Key:
[1] = test system: humanized ApoE3,3, ApoE4,4 and ApoE3,4 mice; experiment: Novel Object Recognition (NOR) memory test; format: in vivo; conditions: for Novel Object Discrimination Index / Novel Object Exploration time: vs saline
Description: To access impact of Allopregnanolone (Allo) on memory function, humanized ApoE3,3, ApoE4,4 and ApoE3,4 mice were tested using Novel Object Recognition (NOR) in accordance with published literature (Antunes and Biala, Cogn Process. 2012 May; 13(2): 93-110; Ennaceur, Behav Brain Res. 2010 Dec. 31; 215(2):244-54. doi: 10.1016/j.bbr.2009.12.036. Epub 2010 Jan. 7; Leger et al., Nat Protoc. 2013 December; 8(12):2531-7. doi: 10.1038/nprot.2013.155. Epub 2013 Nov. 21; Piterkin et al., Learn. Mem., 15 (2008), pp. 785-791; Taglialatela et al., Behav Brain Res. 200(1): 95-99. 2009).
Behavioral NOR testing was conducted following 24 weekly injections of Allopregnanolone (Allo; 1.5 mg/mL) or saline (0.9%). The Allo and saline used to treat the mice were identical to the Allo and saline used in the clinical trial (ClinicalTrials.gov Identifier: NCT02221622).
Behavioral testing and analysis of behavioral outcomes were conducted blind to the experimental condition. Code for treatment groups was unblinded for statistical analyses by analyst who was independent of behavioral testing.
Difference in exploration time (in seconds) was calculated by subtracting the time spent exploring the familiar object from that of the novel object (Tn−Tf) and denoted by ‘Df’. Second, a ratio of the difference in exploration time to the total time spent exploring was calculated (Tn−Tf/Tn+Tf) and denoted by Discrimination Index (DI). The DI can vary between +1 and −1, where a positive score indicates more time spent with the novel object, a negative score indicates more time spent with the familiar object, and a zero score indicates a null preference (Antunes and Biala, 2012). The DI adjusts for difference in total exploration time (Broadbent et al.). Statistical analyses were conducted using Mann-Whitney test and p-value of less than 0.05 was considered significant.

[2] = Phase 1 multiple ascending dose clinical trial: plasma levels after weekly intravenous infusion; format: in vivo, human; conditions: for Cmax: human, plasma
Description: (§1) Clinical Trials were carried out in adult humans (see gov Identifier: NCT02221622 for the ongoing Phase 1b/2a clinical trial at https://clinicaltrials.gov/ct2/show/NCT02221622).
(§2) A randomized double-blind, placebo controlled, multiple ascending dose, phase 1 clinical trial was conducted in patients with mild cognitive impairment due to AD or mild AD or dementia.
(§3) Participants were randomly assigned to receive weekly intravenous infusion of either 2 mg, 4 mg, or 6 mg of Allo or placebo (N=6/group) for 12 weeks. Primary outcomes were to assess safety, tolerability and determine maximally tolerated dose (MTD). Secondary exploratory outcomes were the feasibility and impact of Allo on MRI indicators of regeneration and cognition. Lymphocyte derived iPSCs differentiated to neural stem cells were used to develop biomarker strategy to identify potential regenerative responders.
The standard Phase I dose escalation double-blind, placebo-controlled, single site trial included 24 research participants in three dose cohorts. Each cohort included 8 research participants randomized to drug or placebo in a 6:2 allocation ratio. Cohorts as follows: • Dosing cohort 1) 2 mg Allo or placebo • Dosing cohort 2) 4 mg Allo or placebo • Dosing cohort 3) 6 mg Allo or placebo Each dose cohort was separated by 6 weeks to process, obtain, and assess all safety and tolerability data.
The trial evaluated three doses (2.0, 4.0 and 6.0 mg) of allopregnanolone (Allo) in a delivery vehicle of 6% sulfobutylether-β-cyclodextrin and 0.9% sodium chloride and placebo containing an equal volume of 0.9% sodium chloride for injection USP administered by intravenous sinfusion once per week for 12 weeks. Although the dosing study is not powered to detect statistically significant treatment differences on MRI outcomes and cognition, the MRI is required per FDA safety concerns with respect to amyloid-related imaging abnormalities, such as micro hemorrhages, as per FDA correspondence. Grouped differences from placebo-treated participants were evaluated in an exploratory fashion using the outcomes planned for the larger phase 2, proof of concept trial in order to obtain parameter estimates for the trial design.]
Allo dose selection of 2.0, 4.0 and 6.0 mg was determined by pre-clinical dose response analyses for neurogenesis, an IV bridging study in 3×TgAD mice, prior clinical studies, physiologically-based pharmacokinetics (PBPK) modeling and simulations of pharmacodynamic responses using available pre-clinical and clinical data of non-sedative to mildly sedative doses Planned study Allo doses are within the FDA requirement to not exceed 157 nmol/L (50 ng/ml) plasma concentration Planned Allo dose equivalencies based on 70 kg human are: 2.0 mg=0.028 mg/kg; 4.0 mg=0.056/mg/kg; 6.0 mg=0.084 mg/kg. With respect to safety, intravenous doses of Allo in the same dose range as those for this trial have been administered previously with acceptable safety and. […] Allo in sulfobutylether-β-cyclodextrin and 0.9% sodium chloride formulation was administered intravenously over 30 minutes once per week for 12 weeks. Participants were monitored under medical supervision for a minimum of two hours after each dose. The regimen for Allo administration is based on preclinical analyses that indicate that a once per week treatment regimen results in increased neurogenesis with reduction in AD pathology.

[3] = intravenous doses in the same dose range, earlier studies; cited from earlier work
[4] = test system: patients with mild cognitive impairment due to AD or mild AD or dementia; experiment: Phase 1 clinical trial: MRI indicators of regeneration (gray matter, hippocampal volume); format: in vivo, human
[5] = test system: patients with mild cognitive impairment due to AD or mild AD or dementia; experiment: Phase 1 clinical trial: safety, tolerability and maximally tolerated dose; format: in vivo, human
Description: as §1, §2
as §3, with “Lymphocyte derived iPSCs differentiated to neural stem cells were used to develop biomarker strategy to identify potential regenerative responders.” left out
The trial evaluated three doses (2.0, 4.0 and 6.0 mg) of allopregnanolone (Allo) in a delivery vehicle of 6% sulfobutylether-β-cyclodextrin and 0.9% sodium chloride and placebo containing an equal volume of 0.9% sodium chloride for injection USP administered by intravenous sinfusion once per week for 12 weeks. […] Grouped differences from placebo-treated participants were evaluated in an exploratory fashion using the outcomes planned for the larger phase 2, proof of concept trial in order to obtain parameter estimates for the trial design.] […]

[6] = test system: patients with mild cognitive impairment due to AD or mild AD or dementia; experiment: Phase 1 clinical trial: cognition (ADAScog14, Cog state); format: in vivo, human; conditions: 12 weeks, once per week
Description: as §2, §3
The standard Phase I dose escalation double-blind, placebo-controlled, single site trial included 24 research participants in three dose cohorts. […]
The trial evaluated three doses (2.0, 4.0 and 6.0 mg) of allopregnanolone (Allo) in a delivery vehicle of 6% sulfobutylether-β-cyclodextrin and 0.9% sodium chloride and placebo containing an equal volume of 0.9% sodium chloride for injection USP administered by intravenous sinfusion once per week for 12 weeks. […] Grouped differences from placebo-treated participants were evaluated in an exploratory fashion using the outcomes planned for the larger phase 2, proof of concept trial in order to obtain parameter estimates for the trial design.]

[7] = ApoE3:3 females and males, 24 weekly injections

In the case of CC(=O)[C@H]1CC[C@H]2[C@@H]3CC[C@H]4C[C@H](O)CC[C@]4(C)[C@H]3CC[C@]12C [Allo, 3α-hydroxy-5α-pregnan-20-one], the “Novel Object Discrimination Index” value [1, 7] is reported as “no effect”, the “Novel Object Exploration time” value [1, 7] is reported as “no effect, either positive or negative” and the “Exploration of the novel object” value ([1]; ApoE 3:4 female mice, p=0.05) is reported as “significantly increased”. For the same molecule, the “Ability to discriminate between novel vs familiar object (Discrimination Index)” value ([1]; ApoE 3:4 female mice, p=0.06) was “trended towards a significant increase”, the “Novel Object Discrimination Index” value ([1]; ApoE 4/4 females and males, p<0.05) was “significantly increased” and the “Novel Object Exploration time” value ([1]; ApoE 4:4 females, 24 weekly injections) was “significantly increased”. The “Novel Object Exploration time” value ([1]; ApoE4:4 males, 24 weekly injections) was “trended towards an increase”, the “Correlation (R) of Cmax with Allo delivered in mg/kg dose” value ([2]; 2, 4 and 6 mg cohorts) was 0.77 and the “Time to peak plasma levels” value ([2]; from start of 30 minute intravenous infusion, AD patients) was ≤ 30 min. For the same molecule, the Cmax ([2]; 2 mg intravenous infusion) was 63 ± 21 nM, the Cmax ([2]; 4 mg intravenous infusion) was 130 ± 26 nM and the Cmax ([2]; 6 mg intravenous infusion) was 248 ± 84 nM. The “TEAEs (nausea, mild sedation, fatigue, flushing, anxiety)” value [3] was “mild and transient”, the “Left hippocampal volume (subfield analysis)” value ([4]; Allo 4 mg cohort, 12 weeks) was “increase in left hippocampal volume” and the Brain mass ([4]; human subjects over 55 years having Apo E4 genetic marker) was “increased brain mass”. For the same molecule, the “MRI based indicators of gray matter volume” value ([4]; structural analysis, 12 weeks) was “consistent with regeneration in select brain regions”, the “MTD, established by onset of sedation” value ([5]; intravenous infusion) was > 6 mg and the “Adverse effects, serious adverse events, ARIA” value ([5]; twelve week exposure, multiple doses once per week) was “no reportable adverse effects, serious adverse events or ARIA”. For the same molecule, the “Cognitive function measured by ADAScog14” value [6] was “not improved” and the Cog state indicators ([6]; some indicators) was “consistent with improvement”.
